Assay results reported in patent publication US9193710B2, “Benzodiazepinones as modulators of metabotropic glutamate receptor functions and neurological uses thereof” (SANFORD-BURNHAM MEDICAL RESEARCH INSTITUTE, priority 2011, dated 2015).
pEC50: −log10 of the molar value. Entries after “also recorded” stand apart in the source; their conditions may differ. Where two headings read alike, the source gives them in different places.

What was measured:
Assay type in all cases: cell-based
[1] = test system: human neural stem cells (hNSCs); experiment: Neuronal differentiation of human neural stem cells; parameters: key to Inhibition by LY-354740 / Inhibition by DCG-IV: I—Inhibition; conditions: for pEC50: Homo sapiens, Neural stem cell; for Inhibition by LY-354740: inhibition of the compound-induced neurogenesis by the group II mGlu agonist LY-354740; for Inhibition by DCG-IV: inhibition of the compound-induced neurogenesis by the mGluR2/3 agonist DCG-IV
Method: FIG. 1 is a dose-response curve showing the effect of Compound 1 (8-bromo-4-(pyridazin-4-yl)-1H-benzo[b][1,4]diazepin-2(3H)-one) and DCG-IV, an mGluR2/3 agonist, alone and in combination on neuronal differentiation of cultured human neural stem cells (hNSCs). When run independently, each compound was tested in a concentration response curve ranging from 0.01 μM to 31.6 μM. Data are presented as the percentage of the neuronal positive control, with basal media values subtracted. […] In combination, the compounds were combined at equal concentrations at each point (for example, the first point in the combined curve consisted of a test of 0.01 μM Compound 1 and 0.01 μM DCG-IV).
Human neural stem cells (hNSCs) were isolated and grown in monolayer culture, plated, treated with varying concentrations of 8-bromo-4-(pyridazin-4-yl)-1H-benzo[b][1,4]diazepin-2(3H)-one (Compound 1), and stained with TUJ-1 antibody, as described in U.S. Patent Application Publication No. US2007/0015138. Mitogen-free test media with a positive control for neuronal differentiation was used along with basal media without growth factors as a negative control. […] The data are presented as a percent of neuronal positive control.
The same protocol used for exemplary Compound 1 (FIG. 1 and Example 55) was used to test these compounds. LY-354740 (eglumegad) is an agonist of the group II mGlu receptors.

[2] = molecular target: T1, mGluR3 (Homo sapiens, UniProt Q14832); experiment: Functional assay (FLIPR), mGluR3; conditions: class symbols: IC50 or inhibition at fixed concentration; CHO cells over-expressing mGluR3, calcium signal
T1 construct: expressed in transfected cells; transient Galpha16 co-transfection
T1 sequence (Q14832 23-879): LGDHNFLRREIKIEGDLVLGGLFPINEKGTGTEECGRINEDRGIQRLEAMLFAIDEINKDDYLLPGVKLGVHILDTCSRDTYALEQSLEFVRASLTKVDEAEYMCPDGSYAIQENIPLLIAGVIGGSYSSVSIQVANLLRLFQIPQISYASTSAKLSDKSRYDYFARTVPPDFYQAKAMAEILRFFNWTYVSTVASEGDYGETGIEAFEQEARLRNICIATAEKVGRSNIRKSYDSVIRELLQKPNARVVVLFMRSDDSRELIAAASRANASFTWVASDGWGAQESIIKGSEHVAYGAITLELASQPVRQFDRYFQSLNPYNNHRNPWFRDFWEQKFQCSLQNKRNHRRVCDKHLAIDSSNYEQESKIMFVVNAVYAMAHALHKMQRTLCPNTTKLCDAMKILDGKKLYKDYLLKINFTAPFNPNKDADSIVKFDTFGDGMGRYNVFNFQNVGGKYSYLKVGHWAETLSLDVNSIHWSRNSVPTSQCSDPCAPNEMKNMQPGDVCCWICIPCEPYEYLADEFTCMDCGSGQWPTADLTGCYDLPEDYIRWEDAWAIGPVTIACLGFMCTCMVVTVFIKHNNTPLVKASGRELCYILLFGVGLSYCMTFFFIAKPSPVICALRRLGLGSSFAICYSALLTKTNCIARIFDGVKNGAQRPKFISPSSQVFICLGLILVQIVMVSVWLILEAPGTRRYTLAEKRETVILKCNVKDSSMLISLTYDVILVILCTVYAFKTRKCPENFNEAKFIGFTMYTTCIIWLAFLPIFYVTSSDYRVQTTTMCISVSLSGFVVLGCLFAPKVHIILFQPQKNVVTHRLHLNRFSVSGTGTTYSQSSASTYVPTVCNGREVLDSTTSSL
Method: (§1) The compounds are further characterized through functional assays known in the art for studying potential mGluR agents. As a non-limiting example, the assay may be conducted as follows. Chinese hamster ovary (CHO) cells stably over-expressing either mGluR2 or mGluR3 are seeded into multiwell plates and transiently transfected overnight at 37° C. with a cDNA construct expressing G-protein coupled to intracellular calcium such as Gα16. The following day cells are washed with Hank's balanced salt solution containing calcium and magnesium. Cells are loaded for 1-2 hours with a calcium dye such as Fluo4 at 37° C.
The test compound may be added prior to or concurrent with the loading of the cells with Fluo4. Pre-incubation with compounds can vary from 5 minutes up 2 hours. Pre-incubation is done if the assay is testing for antagonists, positive allosteric modulators or negative allosteric modulators. No pre-incubation is done if the assay is testing for agonist activity. For testing antagonists or negative allosteric modulators an EC80 of the endogenous ligand, glutamate, is used. For testing positive allosteric modulators an EC20 of the endogenous ligand, glutamate, is used. Cells plates are loaded into a real-time fluorescence reader such as the FLIPR Tetra or the Flexstation 3. A base line is recorded for 15 seconds before cells are stimulated with either glutamate or other agonists. The real-time fluorescent signal is recorded for another 2 minutes. The peak of the fluorescent signal is determined. Data are either expressed as percent of the glutamate response in terms of a single determination or concentration curves are fitted with a four parameter logistic equation giving EC50 or IC50 values.

[3] = molecular target: T2, mGluR2 (Homo sapiens, UniProt Q14416); experiment: Functional assay (FLIPR), mGluR2; conditions: class symbols: IC50 or inhibition at fixed concentration; CHO cells over-expressing mGluR2, calcium signal
T2 construct: expressed in transfected cells; transient Galpha16 co-transfection
T2 sequence (Q14416 19-872): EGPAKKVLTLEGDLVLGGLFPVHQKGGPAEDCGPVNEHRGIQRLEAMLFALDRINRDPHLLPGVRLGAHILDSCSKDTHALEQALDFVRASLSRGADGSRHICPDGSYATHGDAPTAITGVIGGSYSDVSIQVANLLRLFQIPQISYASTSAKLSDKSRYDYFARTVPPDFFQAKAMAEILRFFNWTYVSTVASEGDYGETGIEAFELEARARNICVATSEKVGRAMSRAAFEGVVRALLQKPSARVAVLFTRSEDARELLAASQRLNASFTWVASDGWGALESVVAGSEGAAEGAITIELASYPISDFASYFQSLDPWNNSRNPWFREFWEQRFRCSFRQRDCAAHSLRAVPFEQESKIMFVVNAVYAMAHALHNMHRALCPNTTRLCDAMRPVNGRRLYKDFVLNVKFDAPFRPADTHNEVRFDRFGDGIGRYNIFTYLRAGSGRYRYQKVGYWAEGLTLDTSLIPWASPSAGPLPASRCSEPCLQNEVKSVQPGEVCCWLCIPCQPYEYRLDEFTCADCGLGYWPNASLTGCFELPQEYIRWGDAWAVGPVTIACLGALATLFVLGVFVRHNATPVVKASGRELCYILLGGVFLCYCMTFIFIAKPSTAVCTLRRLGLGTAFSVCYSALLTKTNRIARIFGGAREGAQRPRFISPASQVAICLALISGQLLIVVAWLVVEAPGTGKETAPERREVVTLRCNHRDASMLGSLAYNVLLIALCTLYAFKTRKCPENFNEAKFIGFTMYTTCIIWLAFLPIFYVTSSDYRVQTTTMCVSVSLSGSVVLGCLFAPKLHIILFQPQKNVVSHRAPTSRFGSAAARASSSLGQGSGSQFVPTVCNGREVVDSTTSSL
Method: as §1
The test compound may be added prior to or concurrent with the loading of the cells with Fluo4. Pre-incubation with compounds can vary from 5 minutes up 2 hours. […] Cells plates are loaded into a real-time fluorescence reader such as the FLIPR Tetra or the Flexstation 3. A base line is recorded for 15 seconds before cells are stimulated with either glutamate or other agonists. The real-time fluorescent signal is recorded for another 2 minutes. The peak of the fluorescent signal is determined. Data are either expressed as percent of the glutamate response in terms of a single determination or concentration curves are fitted with a four parameter logistic equation giving EC50 or IC50 values.

[4] = neuronal differentiation of hNSCs, TUJ-1 staining, read-out: Neurogenesis EC50

| Compound | pEC50 [1, 4] | other results |
| --- | --- | --- |
| COc1ccc(-c2ccc3c(c2)NC(=O)CC(c2ccnnc2)=N3)cc1OC [Compound 17, 8-(3,4-Dimethoxyphenyl)-4-(pyridazin-4-yl)-1H-benzo[b][1,4]diazepin-2(3H)-one] | < 5.30 |  |
| O=C1CC(c2ccnnc2)=Nc2ccc(-c3cccs3)cc2N1 [Compound 15, 8-(Thiophen-2-yl)-4-(pyridazin-4-yl)-1H-benzo[b][1,4]diazepin-2(3H)-one] | 5.30 to 6.00 | Inhibition by LY-354740 [1]: I; Inhibition by DCG-IV [1]: I |
| O=C1CC(c2ccnnc2)=Nc2ccc(C(=O)O)cc2N1 [Compound 12, 2-oxo-4-(pyridazin-4-yl)-2,3-dihydro-1H-benzo[b][1,4]diazepine-8-carboxylic acid] | > 6.00 | Inhibition by LY-354740 [1]: I |
| Cc1cc2c(cc1C)NC(=O)CC(c1ccnnc1)=N2 [Compound 13, 7,8-Dimethyl-4-(pyridazin-4-yl)-1H-benzo[b][1,4]diazepin-2(3H)-one] | < 5.30 |  |
| O=C1CC(c2ccnnc2)=Nc2ccc(C(F)(F)F)cc2N1 [Compound 2, 8-trifluoromethyl-4-(pyridazin-4-yl)-1H-benzo[b][1,4]diazepin-2(3H)-one] | 5.30 to 6.00 | Inhibition by LY-354740 [1]: I |
| N[C@H](C(=O)O)C1[C@@H](C(=O)O)[C@@H]1C(=O)O (some centres unmarked) [DCG-IV, reference compound] |  | effect on neuronal differentiation (neurogenesis), tested alone ([1]; FIG. 1, 0.01 μM to 31.6 μM): no effect; also recorded: did not induce neurogenesis |
| O=C1CC(c2ccc3[nH]c(=O)sc3c2)=Nc2ccc(C#Cc3ccccc3F)cc2N1 [Compound 36, 6-(8-((2-fluorophenyl)ethynyl)-2-oxo-2,3-dihydro-1H-benzo[b][1,4]diazepin-4-yl)benzo[d]thiazol-2(3H)-one] |  | mGluR3 FLIPR [2]: C (C=inhibition at 101.1M<50%) |
| O=C1CC(c2ccnnc2)=Nc2ccc(-c3ccccc3F)cc2N1 [Compound 16, 8-(2-Fluorophenyl)-4-(pyridazin-4-yl)-1H-benzo[b][1,4]diazepin-2(3H)-one] | < 5.30 |  |
| O=C1CC(c2ccnnc2)=Nc2ccc(Br)cc2N1 [Compound 1, 8-bromo-4-(pyridazin-4-yl)-1H-benzo[b][1,4]diazepin-2(3H)-one] | 5.30 to 6.00 | effect on neuronal differentiation (neurogenesis), tested alone ([1]; FIG. 1, 0.01 μM to 31.6 μM): promoted neuronal differentiation in a concentration dependent manner; neurogenesis in combination with DCG-IV ([1]; FIG. 1, Compound 1 and DCG-IV at equal concentrations (1:1 ratio) at each point): no noted neurogenesis; also recorded: did not induce neurogenesis; pEC50 ([1]; FIG. 1, 0.01 μM to 31.6 μM, percentage of neuronal positive control, basal media subtracted, read-out: EC50, neuronal differentiation dose-response curve): 5.60; Inhibition by DCG-IV [1]: I |
| COC(=O)c1ccc2c(c1)NC(=O)CC(c1ccnnc1)=N2 [Compound 4, Methyl 2-oxo-4-(pyridazin-4-yl)-2,3-dihydro-1H-benzo[b][1,4]diazepine-8-carboxylate] | 5.30 to 6.00 |  |
| O=C1CC(c2ccc(O)nn2)=Nc2ccc(Br)cc2N1 [Compound 33, 8-Bromo-4-(6-hydroxypyridazin-3-yl)-1H-benzo[b][1,4]diazepin-2(3H)-one] |  | mGluR3 FLIPR [2]: B (B=inhibition at 101.1M>50%) |
| O=C1CC(c2ccc(Cl)nn2)=Nc2ccc(Br)cc2N1 [Compound 10] | 5.30 to 6.00 |  |
| O=C1CC(c2cncnc2)=Nc2ccc(Br)cc2N1 [Compound 7, 8-Bromo-4-(pyrimidin-3-yl)-1H-benzo[b][1,4]diazepin-2(3H)-one] | < 5.30 |  |
| O=C1CC(c2cnccn2)=Nc2ccc(Br)cc2N1 [Compound 8, 8-Bromo-4-(pyrazin-2-yl)-1H-benzo[b][1,4]diazepin-2(3H)-one] | < 5.30 |  |
| O=C1CC(c2ccnnc2)=Nc2ccc(I)cc2N1 [Compound 3, 8-iodo-4-(pyridazin-4-yl)-1H-benzo[b][1,4]diazepin-2(3H)-one] | 5.30 to 6.00 | Inhibition by LY-354740 [1]: I |
| Cc1ccc(C2=Nc3ccc(Br)cc3NC(=O)C2)nn1 [Compound 9] | 5.30 to 6.00 |  |
| O=C1CC(c2ccc3[nH]c(=O)sc3c2)=Nc2ccc(Br)cc2N1 [Compound 35, 6-(8-bromo-2-oxo-2,3-dihydro-1H-benzo[b][1,4]diazepin-4-yl)benzo[d]thiazol-2(3H)-one] |  | mGluR3 FLIPR [2]: C (C=inhibition at 101.1M<50%) |
| O=C1CC(c2ccnnc2)=Nc2ccc(Cl)cc2N1 [Compound 5, 8-chloro-4-(pyridazin-4-yl)-1H-benzo[b][1,4]diazepin-2(3H)-one] | > 6.00 |  |
| O=C1CC(c2cccc(Br)c2)=Nc2ccc(NC(=O)OCc3ccccc3)cc2N1 [Compound 82, benzyl(4-(3-bromophenyl)-2-oxo-2,3-dihydro-1H-benzo[b][1,4]diazepin-8-yl)carbamate] |  | mGluR2 FLIPR [3]: A (A=IC50<1 μM) |
| O=C1CC(c2ccnnc2)=Nc2ccc(F)cc2N1 [Compound 6, 8-fluoro-4-(pyridazin-4-yl)-1H-benzo[b][1,4]diazepin-2(3H)-one] | 5.30 to 6.00 |  |
